“Also recorded” adds a separate entry of the source.
How the values were obtained:
human CYP11B2 [1] = tested on: human CYP11B2; parameters: method as in PMID 26005536; settings: cited from earlier work
hCYP11B1 = tested on: hCYP11B1; parameters: method as in PMID 26005536; settings: read-out: IC50 CYP11B1; cited from earlier work
[2] = Dynamic PET/CT imaging in mice; assay type: in vivo, female BALB/c mice; settings: PET
Protocol: Dynamic PET imaging was performed using a nanoScan PET-CT system manufactured by Mediso (Medical Imaging Systems, Budapest, Hungary). Mice (n = 6) were anaesthetized with isoflurane (2% v/v in oxygen) and placed on the preheated bed of the scanner (set at 38 °C). [^18F]AldoView (7.3 ± 4.1 MBq, formulated in 100–150 μl saline containing 5% ethanol) was injected into the tail vein via intravenous cannulation. After injection, the catheter was carefully removed. The breathing rate and body temperature of the animals were closely monitored during the dynamic PET scans and, if necessary, the isoflurane dose was adjusted. Scans were recorded over 1 h, and the animals were subsequently sacrificed by cervical dislocation. Quantification of the tissue uptake (in % ID/g) was carried out based on the regions of interest manually drawn on the CT using the software package VivoQuant 1.23 (inviCRO, Boston, USA).

CYP11B2 = biological target: T1, CYP11B2 (Homo sapiens, UniProt P19099); experiment: Quantitative phosphorimaging (in vitro autoradiography) in human adrenal tissue sections; assay type: binding; settings: for NSB (non-specific binding): with 25 μM AldoView
T1 construct: from tissue
T1 sequence (P19099 25-503): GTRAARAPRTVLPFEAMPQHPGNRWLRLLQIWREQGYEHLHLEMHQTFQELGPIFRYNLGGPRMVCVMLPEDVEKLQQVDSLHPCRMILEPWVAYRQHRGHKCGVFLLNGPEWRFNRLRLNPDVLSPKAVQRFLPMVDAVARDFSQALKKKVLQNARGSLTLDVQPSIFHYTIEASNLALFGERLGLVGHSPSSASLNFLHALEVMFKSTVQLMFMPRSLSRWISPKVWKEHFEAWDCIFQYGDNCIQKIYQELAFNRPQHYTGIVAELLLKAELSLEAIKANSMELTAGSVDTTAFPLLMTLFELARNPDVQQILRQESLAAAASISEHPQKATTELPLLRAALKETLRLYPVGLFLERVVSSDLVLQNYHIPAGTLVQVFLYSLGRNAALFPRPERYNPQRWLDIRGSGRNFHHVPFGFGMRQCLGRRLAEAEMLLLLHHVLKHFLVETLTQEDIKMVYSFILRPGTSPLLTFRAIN
Excerpt: Adrenal surgical specimens were obtained from patients with Conn’s disease, Cushing’s disease, pheochromocytoma, and adrenal tumors, who had consented to the use of their tissue for research applications. Ethical approval was obtained from the UK Multicentre Research Ethics Committee (06/Q0104/133). Following routine adrenalectomy, surgical specimens were immediately flash frozen using a slurry of isopentane and dry ice. Cryosections (20 μm) obtained from the frozen tissue blocks were mounted on lysine-coated microscope slides and stored at −80 °C.
Thawed tissue sections on microscopic slides were dipped in pentane for 5 s to degrease the tissue. This step was required to avoid nonspecific binding (NSB), in particular to medullar fat. Tissue sections were subsequently rehydrated in tris-buffered saline (TBS; pH = 7.5) for 30 min and subsequently incubated with a solution of [^18F]AldoView in TBS for 60 min (1 mL per slide). For determination of the total binding (TB), [^18F]AldoView was diluted with TBS to a concentration of 2 MBq/mL. For the determination of NSB, a solution of the nonradioactive reference compound in ethanol (3.5 mM) was added to a solution of [^18F]AldoView in TBS and diluted to give a final AldoView concentration of 25 μM and a final [^18F]AldoView concentration of 2 MBq/mL. After incubation, unbound [^18F]AldoView was removed by washing the sections in ice-cold TBS (three times for 5 min) and water (1 min). Internal standards were prepared by serial dilution of the [^18F]AldoView solution used for determination of the TB. Tissue sections and internal standards absorbed on filter paper were left to air-dry and subsequently exposed to a phosphor screen (BAS-IP MS; GE Healthcare) overnight. Phosphorimaging was performed on a Typhoon Trio scanner (GE Healthcare). All phosphorimaging experiments were performed in at least three adjacent tissue sections per case, tissue block, and experimental condition (TB, NSB). Quantification of phosphor images was performed using the analysis software ImageJ (version 1.48).[28] Determination of TB and NSB (in kBq/cm^2; Table S1) was based on correlation curves generated from the internal standards. The specific [^18F]AldoView binding was calculated as the difference between TB and NSB.

human CYP11B2 [3] = experiment: Inhibition of human CYP11B2 (aldosterone synthase), literature values; assay type: biochemical; settings: human isoforms
[4] = Blood/plasma metabolite analysis by radio-HPLC; assay type: in vivo, female BALB/c mice
Protocol: Blood metabolite analysis was performed as part of the biodistribution studies (n = 2–3 per time point). Blood samples were collected in heparin-coated tubes, and an aliquot (20 μL) was taken for gamma counting. After centrifugation (5 min, 13,000 rpm), the plasma (∼500 μL) was separated. Plasma proteins were subsequently precipitated with ice-cold acetonitrile (1 mL), and samples were centrifuged (5 min, 13,000 rpm). An aliquot of the supernatant (500 μL) was separated from the pellet and diluted with water (500 μL). The recovery of radioactivity in the supernatant was near quantitative (>95%). Analysis was carried out by radio-HPLC using a Phenomenex Onyx monolithic C-18 column (100 × 10 mm). The mobile phase consisted of water and methanol, and the flow rate was 5 mL/min. An isocratic eluent (10% methanol in water) was used for 3 min, followed by a gradient from 10 to 70% methanol over 7 min.

[5] = Ex vivo biodistribution in mice (gamma counting); parameters: species or system female BALB/c mice
Protocol: [^18F]AldoView (6.6 ± 1.9 MBq, formulated in saline containing 5% ethanol) was administered intravenously into the tail vein of female wild-type BALB/c mice (n = 3–4 per time point) without anesthesia. At designated time points (15, 30, 60, and 120 min postinjection), animals were anesthetized with isoflurane (4% v/v in oxygen) and the blood was taken by cardiac puncture. Mice were subsequently sacrificed by cervical dislocation. The organs of interest were sampled and weighed, and the radioactivity content was measured by automated gamma counting (PerkinElmer Wizard^2). Results were expressed as % ID/g bodyweight.

[6] = specimen 1b (high), case 1, PHA
[7] = specimen 2b (high), case 2, PHA
[8] = specimen 2c (high), case 2, PHA
[9] = specimen 3b (high), case 3, PHA
[10] = specimen 6a, case 6, pheochromocytoma
[11] = specimen 6b, case 6, pheochromocytoma
[12] = specimen 7a, case 7, adrenal tumor
[13] = biodistribution, 15 min postinjection
[14] = biodistribution, 30 min postinjection (peak)

## Fc1cncc(-c2nc3cc(F)c(F)cc3n2C2CC2)c1 [Compound 3, 1-Cyclopropyl-5,6-difluoro-2-(5-fluoropyridin-3-yl)-1H-benzo[d]imidazole, reference compound]
Human CYP11B2 [1]
  IC50: 4.7 nM
hCYP11B1
  IC50: 435 nM

## Fc1cc2nc(-c3cncc([18F])c3)n(C3CC3)c2cc1F [[^18F]AldoView]
[2]
  time for liver activity to decrease to half the peak value: ≤ 30 min
[2]; at 6 min postinjection
  peak liver activity: 48 ± 11 % ID/g
[2]; knee extensors, throughout scan (1 h)
  level of activity in muscle: < 1.5 % ID/g
[2]; postinjection
  time of peak liver activity: 6 min
CYP11B2; n = 3
  tracer binding in specimens from control subjects: 2.6 ± 1.8 kBq/cm^2
CYP11B2; n = 4
  tracer binding in CYP11B2-negative areas in specimens from patients with PHA: 3.2 ± 1.1 kBq/cm^2
CYP11B2; specimen 1a, case 1, PHA
  SB (specific binding): 19.7 kBq/cm2
  TB (total binding): 20.1 kBq/cm2
  NSB (non-specific binding): 0.4 kBq/cm2
CYP11B2; [6]
  SB (specific binding): 8.6 kBq/cm2
  TB (total binding): 17.9 kBq/cm2
  NSB (non-specific binding): 9.3 kBq/cm2
CYP11B2; specimen 1b (low), case 1, PHA
  SB (specific binding): 4.8 kBq/cm2
  TB (total binding): 5.6 kBq/cm2
  NSB (non-specific binding): 0.9 kBq/cm2
CYP11B2; specimen 2a, case 2, PHA
  SB (specific binding): 2.5 kBq/cm2
  TB (total binding): 2.8 kBq/cm2
  NSB (non-specific binding): 0.3 kBq/cm2
CYP11B2; [7]
  SB (specific binding): 18.9 kBq/cm2
  TB (total binding): 20.2 kBq/cm2
  NSB (non-specific binding): 1.3 kBq/cm2
CYP11B2; specimen 2b (low), case 2, PHA
  SB (specific binding): 2.1 kBq/cm2
  TB (total binding): 2.4 kBq/cm2
  NSB (non-specific binding): 0.3 kBq/cm2
CYP11B2; [8]
  SB (specific binding): 19.1 kBq/cm2
  TB (total binding): 20.0 kBq/cm2
  NSB (non-specific binding): 1.0 kBq/cm2
CYP11B2; specimen 2c (low), case 2, PHA
  SB (specific binding): 3.0 kBq/cm2
  TB (total binding): 3.3 kBq/cm2
  NSB (non-specific binding): 0.3 kBq/cm2
CYP11B2; specimen 3a, case 3, PHA
  SB (specific binding): 6.8 kBq/cm2
  TB (total binding): 7.6 kBq/cm2
  NSB (non-specific binding): 0.7 kBq/cm2
CYP11B2; [9]
  SB (specific binding): 10.4 kBq/cm2
  TB (total binding): 15.5 kBq/cm2
  NSB (non-specific binding): 5.1 kBq/cm2
CYP11B2; specimen 3b (low), case 3, PHA
  SB (specific binding): 3.0 kBq/cm2
  TB (total binding): 4.3 kBq/cm2
  NSB (non-specific binding): 1.2 kBq/cm2
CYP11B2; specimen 4a, case 4, PHA
  SB (specific binding): 3.6 kBq/cm2
  TB (total binding): 4.2 kBq/cm2
  NSB (non-specific binding): 0.6 kBq/cm2
CYP11B2; specimen 4b, case 4, PHA
  SB (specific binding): 16.5 kBq/cm2
  TB (total binding): 18.4 kBq/cm2
  NSB (non-specific binding): 1.9 kBq/cm2
CYP11B2; specimen 5a, case 5, PHA
  SB (specific binding): 5.1 kBq/cm2
  TB (total binding): 5.9 kBq/cm2
  NSB (non-specific binding): 0.8 kBq/cm2
CYP11B2; specimen 5b, case 5, PHA
  SB (specific binding): 4.2 kBq/cm2
  TB (total binding): 5.1 kBq/cm2
  NSB (non-specific binding): 0.9 kBq/cm2
CYP11B2; specimen 5c, case 5, PHA
  SB (specific binding): 3.5 kBq/cm2
  TB (total binding): 4.5 kBq/cm2
  NSB (non-specific binding): 1.0 kBq/cm2
CYP11B2; [10]
  SB (specific binding): < LOQ; also recorded: limit of quantification
  TB (total binding): < LOQ
  NSB (non-specific binding): < LOQ
CYP11B2; [11]
  SB (specific binding): 4.0 kBq/cm2
  TB (total binding): 5.3 kBq/cm2
  NSB (non-specific binding): 1.3 kBq/cm2
CYP11B2; [12]
  SB (specific binding): 0.5 kBq/cm2
  TB (total binding): 1.7 kBq/cm2
  NSB (non-specific binding): 1.2 kBq/cm2
CYP11B2; specimen 8a, case 8, Cushing's
  SB (specific binding): 3.2 kBq/cm2
  TB (total binding): 3.7 kBq/cm2
  NSB (non-specific binding): 0.5 kBq/cm2
Human CYP11B2 [1]
  IC50: 4.7 nM
Human CYP11B2 [3]
  hCYP11B2 selectivity (B2/B1 ratio): 93
[4]; 15 min postinjection
  intact parent fraction in blood: 59%
[4]; 30 min postinjection
  intact parent fraction in blood: 29%
[4]; 60 min postinjection
  intact parent fraction in blood: 21%
[4]; 120 min postinjection
  tracer in blood: still detectable in blood at 120 min, although at low levels
hCYP11B1
  IC50: 435 nM
[5]; 15 min postinjection
  ratio between tracer uptake in adrenals and kidneys: 1.2
[5]; [13]
  activity level in kidneys: 5.2 ± 3.5 % ID/g
  activity level in liver: 11.8 ± 4.1 % ID/g
  activity level in small intestines: 4.3 ± 4.7 % ID/g
[5]; biodistribution, 15 min postinjection, n = 2
  activity level in adrenals: 6.1 % ID/g
[5]; biodistribution, 30 min postinjection
  activity level in adrenals: 4.0 ± 2.5 % ID/g
[5]; [14]
  activity level in kidneys: 5.7 ± 2.9 % ID/g
  activity level in liver: 12.4 ± 5.9 % ID/g
[5]; biodistribution, 60 min postinjection
  activity level in adrenals: 1.8 ± 1.1 % ID/g

From PMC8273890, “Development of [^18F]AldoView as the First Highly Selective Aldosterone Synthase PET Tracer for Imaging of Primary Hyperaldosteronism” (Journal of Medicinal Chemistry, 2021)
